Measurements as given in publication PMC8036666, “Biological and Physico-Chemical Characteristics of Arginine-Rich Peptide Gemini Surfactants with Lysine and Cystine Spacers” (International Journal of Molecular Sciences, 2021).
In brackets after ≈: the same amount, converted by molar mass. Several values for one entry are separate records, joined by “and”; a condition that tells them apart may be missing. Identical values can stand only once. Like-named read-outs stand apart in the source and are kept apart here. Where a SMILES comes first, the peptide text is derived from it. Bridges are numbered along the chain shown (N, C = ends). Roman numbers before positions name the chains, in order. The star is where a group is joined. Decanoyl = CCCCCCCCCC(=O)*; Octanoyl = CCCCCCCC(=O)*

Assays:
[1] = Critical aggregation concentration by surface tension (Du Noüy ring, K100 tensiometer); format: physicochemical; conditions: unbuffered aqueous solution, 298 K
Protocol: The identity of the purified peptides was confirmed with electrospray ionization mass spectrometry (ESI-MS) in positive ion mode. Results of MS analyses and net charge are attached in Supplementary Materials (Table S1). Peptides’ hydrophobicity was evaluated by analytical reversed-phase high-performance liquid chromatography (RP-HPLC). The critical aggregation concentrations (CACs) of the lipopeptides were determined in unbuffered aqueous solution at 298 K by measuring the surface tension as a function of lipopeptide concentration. The measurements were carried out by the Du Noüy ring method on a K100 tensiometer. The surface tension data were plotted against the logarithm of lipopeptide concentration. CAC was found as the intersection of two lines being linear regression of data below and above CAC.
The critical aggregation concentration (CAC) values were determined fully automatically using a K100 tensiometer (KRUSS, Hamburg, Germany) equipped with two micro dosimeters by measuring the surface tension vs. lipopeptide concentration. The measurements were performed in unbuffered aqueous solution at 298 K using the Du Noüy ring method. The accuracy of the surface tension measurements was 0.1 mN/m. The critical aggregation concentration (CAC) was defined as the intersection of two lines fitted to the experimental data collected before and after the inflection point.

[2] = test system: human red blood cells (hRBCs); experiment: Hemolysis assay; format: cell-based; conditions: 1 h
Protocol: The hemolysis assay was performed by using the method reported previously. Fresh human red blood cells (hRBCs) with anticoagulant (EDTA) were rinsed three times with a PBS by centrifugation at 800× g for 10 min and diluted with PBS. The compounds were serially diluted on a 96-well microtiter polystyrene plate, and hRBCs were added up to a final volume of 100 μL. The compound concentration ranged between 0.5 and 256 μg/mL and the final hRBCs concentration was 4% (v/v). Controls for zero (blank) and 100% hemolysis consisted of hRBCs suspended in PBS and 1% of Triton-X 100 (Carl Roth GmbH, Karlsruhe, Germany), respectively. The plate was incubated for 1 h at 37 °C and then centrifuged (800× g, 10 min, 4 °C). Subsequently, the supernatant was […] to new microtiter plates, and the absorbance at 540 nm was measured (Multiskan GO Microplate Spectrophotometer, Thermo Fisher Scientific, Vantaa, Finland). All experiments were conducted in triplicate. HC50 was calculated using an ic50.tk tool. The protocol of the study was approved by the local Bioethics Committee at the Medical University of Gdańsk (NKBBN/262/2019, approval date: 10 June 2019).

HaCaT cells = format: cell-based, human; conditions: 24 h
Protocol: Cells were trypsinized, and the medium was renewed 2–3 times per week. The cytotoxicity of compounds was assessed by the determination of cell metabolic activity by colorimetric CellTilter 96® Aqueous One Solution Cell Proliferation Assay (Promega, Madison, WI, USA), according to the manufacturer’s instructions. […] Every compound was medium-soluble in 37 °C; thus, the control cells were cultured with the medium. Serial dilutions of the tested compounds were always prepared prior to use. Cells were incubated with drugs for 24 h, and then, 20 μL of the CellTiter 96®AqueousOne Solution Reagent was added to each well containing cells maintained in 100 μL of culture medium.

[3] = test system: Staphylococcus aureus ATCC 33591
Protocol: The Acinetobacter baumannii ATCC BAA-1605, Enterococcus faecium ATCC 700221, Escherichia coli ML-35 ATCC 43827, Klebsiella aerogenes ATCC 13048, Klebsiella pneumoniae ATCC 700603, Pseudomonas aeruginosa ATCC 9027, Staphylococcus aureus ATCC 25923, Staphylococcus aureus ATCC 33591, Candida albicans ATCC 10231, Candida glabrata ATCC 15126, strains were acquired from the American Type Culture Collection (ATCC). All the strains were stored at −80 °C in Roti-Store cryo vials and before the tests were transferred into fresh Mueller–Hinton broth (MHB, Biocorp, Warsaw, […], Steinheim, Germany) for fungi and incubated for 24 h at 37 °C. Then, the cultures were seeded on the Mueller–Hinton agar (BioMaxima, Lublin, Poland) or Sabouraud dextrose agar (SDA, BioMaxima, Lublin, Poland) plates, respectively, and incubated as just mentioned. These agar cultures were used for further microbiological assays. […]
The MICs were determined by the broth microdilution method according to the Clinical and Laboratory Standard Institute guidelines. […] The experiments were conducted on 96-well microtiter polystyrene plates (Kartell, Noviglio, Italy). The growth was assessed visually after incubation, and the MIC was assumed as the lowest peptide concentration at which a noticeable growth of microorganisms was inhibited. All experiments were conducted in triplicate.

C. albicans ATCC 10231 = test system: C. albicans ATCC 10231
Protocol: (§1) The Acinetobacter baumannii ATCC BAA-1605, Enterococcus faecium ATCC 700221, Escherichia coli ML-35 ATCC 43827, Klebsiella aerogenes ATCC 13048, Klebsiella pneumoniae ATCC 700603, Pseudomonas aeruginosa ATCC 9027, Staphylococcus aureus ATCC 25923, Staphylococcus aureus ATCC 33591, Candida albicans ATCC 10231, Candida glabrata ATCC 15126, strains were acquired from the American Type Culture Collection (ATCC). All the strains were stored at −80 °C in Roti-Store cryo vials and before the tests were transferred into fresh Mueller–Hinton broth (MHB, Biocorp, Warsaw, Poland) for bacteria or RPMI-1640 (Sigma-Aldrich, Steinheim, Germany) for fungi and incubated for 24 h at 37 °C. Then, the cultures were seeded on the Mueller–Hinton agar (BioMaxima, Lublin, Poland) or Sabouraud dextrose agar (SDA, BioMaxima, Lublin, Poland) plates, respectively, and incubated as just mentioned. These agar cultures were used for further microbiological assays. Cell densities for all assays were adjusted spectrophotometrically (Multiskan GO Microplate Spectrophotometer, Thermo Fisher Scientific, Vantaa, Finland) at 600 and 530 nm for bacteria and fungi, respectively.
(§2) The MICs were determined by the broth microdilution method according to the Clinical and Laboratory Standard Institute guidelines. For this purpose, initial inoculums of bacteria (5 × 10^5 CFU/mL) in MHB and yeasts (2 × 10^3 CFU/mL) in RPMI-1640 with 2% D-glucose were exposed to the ranging concentration of lipopeptides (0.5–256 μg/mL) and incubated at 37 °C for 18 h and 24 h, respectively. The experiments were conducted on 96-well microtiter polystyrene plates (Kartell, Noviglio, Italy). The growth was assessed visually after incubation, and the MIC was assumed as the lowest peptide concentration at which a noticeable growth of microorganisms was inhibited. All experiments were conducted in triplicate.

C. glabrata ATCC 15126 = test system: C. glabrata ATCC 15126
Protocol: as §1, §2

Row | SMILES | CAC [1] | Surface Tension at CAC [1] | HC50 ([2]; hRBCs 4% (v/v), 37 °C) | IC50 (HaCaT cells; HaCaT, MTS) | MIC Staphylococcus aureus ATCC 33591 ([3]; planktonic culture) | MIC C. albicans ATCC 10231 (C. albicans ATCC 10231; planktonic culture) | MIC C. glabrata ATCC 15126 (C. glabrata ATCC 15126; planktonic culture) | IC50 (HaCaT cells) | HC50 ([2]; red cells of human) | MIC Staphylococcus aureus ATCC 33591 ([3]; ATCC 33591, 24 h) | MIC C. albicans ATCC 10231 (C. albicans ATCC 10231; ATCC 10231, 24 h) | MIC C. glabrata ATCC 15126 (C. glabrata ATCC 15126; ATCC 15126, 24 h)
1 | CCCCCCCC(=O)N[C@@H](Cc1ccccc1)C(=O)N[C@@H](CCCNC(=N)N)C(=O)N[C@@H](CCCNC(=N)N)C(=O)N[C@@H](CSSC[C@H](NC(=O)[C@H](CCCNC(=N)N)NC(=O)[C@H](CCCNC(=N)N)NC(=O)[C@H](Cc1ccccc1)NC(=O)CCCCCCC)C(N)=O)C(N)=O [Compound C5] (I: Octanoyl-FRRC-NH2 / II: Octanoyl-FRRC-NH2; disulfide I:4-II:4) | 2.58 mM and 3632.7 μg/mL | 37 mN/m | 117.06 ± 4.60 µg/mL | 146.63 ± 14.95 µg/mL (≈ 104 µM) | 2 µg/mL (≈ 1.42 µM) | 8 µg/mL (≈ 5.67 µM) | 8 µg/mL (≈ 5.67 µM) | – | – | – | – | –
2 | CCCCCCCC(=O)N[C@@H](CCCNC(=N)N)C(=O)N[C@@H](CCCNC(=N)N)C(N)=O [Compound A1, C8-RR-NH2] (Octanoyl-Arg-Arg-NH2) | – | – | – | – | >256 (−/−) µg/mL | >256 (−/−) µg/mL | >256 (−/−) µg/mL | >500 µg/mL | – | – | – | –
3 | CCCCCCC(CCCC)C(=O)N[C@@H](CCCNC(=N)N)C(=O)N[C@@H](CCCNC(=N)N)C(=O)NCCCC[C@H](NC(=O)[C@H](CCCNC(=N)N)NC(=O)[C@H](CCCNC(=N)N)NC(=O)C(CCCC)CCCCCC)C(N)=O (stereo partly shown) [Compound B7] | – | – | – | – | – | – | – | 78.78 ± 6.93 µg/mL (≈ 69.4 µM) | >256 µg/mL | 0.5 µg/mL (≈ 0.441 µM) | 8 µg/mL (≈ 7.05 µM) | 16 µg/mL (≈ 14.1 µM)
4 | CCCCCCCCCC(=O)N[C@@H](CCCNC(=N)N)C(=O)N[C@@H](CCCNC(=N)N)C(N)=O [Compound A2, C10-RR-NH2] (Decanoyl-Arg-Arg-NH2) | – | – | – | – | 256 (−/−) µg/mL | >256 (−/−) µg/mL | >256 (−/−) µg/mL | >500 µg/mL | – | – | – | –
5 | CCCCCCCC(=O)N[C@@H](CCCNC(=N)N)C(=O)N[C@@H](CCCNC(=N)N)C(=O)N[C@@H](CSSC[C@H](NC(=O)[C@H](CCCNC(=N)N)NC(=O)[C@H](CCCNC(=N)N)NC(=O)CCCCCCC)C(N)=O)C(N)=O [Compound C1] (I: Octanoyl-Arg-Arg-Cys-NH2 / II: Octanoyl-Arg-Arg-Cys-NH2; disulfide I:3-II:3) | – | – | – | – | – | – | – | >500 µg/mL | >256 µg/mL | 16 µg/mL (≈ 14.3 µM) | 128 µg/mL (≈ 115 µM) | 64 µg/mL (≈ 57.4 µM)
